Source: PubChem BioAssay AID256 (DTP/NCI, 2004)
“And” between values parts separate entries of the source, which are not always exact repeats. Equal entries are not always repeated. Inconclusive results and toxic doses are left out. How the source made its calls: active means survival T/C of 150% or more; inactive means T/C below 125% in these data.

System: CD2F1 mice, L1210 leukemia ip, survival T/C
Experiment: NCI In Vivo Anticancer Drug Screen. Data for tumor model L1210 Leukemia (intraperitoneal) in CD2F1 (CDF1) mice
Settings: higher = longer survival
In short: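 Compound-dosed mice with transplantable tumor versus matched vehicle controls; endpoint ratio T/C reported.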

[1] = endpoint: mean survival time, dose: 100.0 mg/kg/injection, schedule: Q04DX002 (ip), vehicle: saline
[2] = endpoint: mean survival time, dose: 200.0 mg/kg/injection, schedule: Q04DX002 (ip), vehicle: saline
[3] = endpoint: mean survival time, dose: 75.0 mg/kg/injection, schedule: Q01DX001 (ip), vehicle: saline
[4] = endpoint: mean survival time, dose: 150.0 mg/kg/injection, schedule: Q01DX001 (ip), vehicle: saline
[5] = endpoint: mean survival time, dose: 100.0 mg/kg/injection, schedule: Q01DX009 (ip), vehicle: saline with Tween-80
[6] = endpoint: mean survival time, dose: 100.0 mg/kg/injection, schedule: Q04DX003 (ip), vehicle: saline with Tween-80
[7] = endpoint: mean survival time, dose: 200.0 mg/kg/injection, schedule: Q01DX009 (ip), vehicle: saline with Tween-80
[8] = endpoint: mean survival time, dose: 200.0 mg/kg/injection, schedule: Q04DX003 (ip), vehicle: saline with Tween-80
[9] = endpoint: mean survival time, dose: 400.0 mg/kg/injection, schedule: Q01DX009 (ip), vehicle: saline with Tween-80
[10] = endpoint: mean survival time, dose: 400.0 mg/kg/injection, schedule: Q04DX003 (ip), vehicle: saline with Tween-80
[11] = endpoint: mean survival time, dose: 25.0 mg/kg/injection, schedule: Q01DX009 (ip), vehicle: distilled water + Tween-80
[12] = endpoint: mean survival time, dose: 50.0 mg/kg/injection, schedule: Q01DX009 (ip), vehicle: distilled water + Tween-80
[13] = endpoint: mean survival time, dose: 100.0 mg/kg/injection, schedule: Q01DX009 (ip), vehicle: distilled water + Tween-80
[14] = endpoint: mean survival time, dose: 200.0 mg/kg/injection, schedule: Q01DX009 (ip), vehicle: distilled water + Tween-80
[15] = endpoint: mean survival time, dose: 400.0 mg/kg/injection, schedule: Q01DX009 (ip), vehicle: distilled water + Tween-80

Measured: T/C

CCn1cnccc1=O
inactive: [1] 92 % of control | [2] 109 % of control | endpoint: mean survival time, dose: 300.0 mg/kg/injection, schedule: Q04DX002 (ip), vehicle: saline 115 % of control | endpoint: mean survival time, dose: 450.0 mg/kg/injection, schedule: Q04DX002 (ip), vehicle: saline 117 % of control

O=C(O)CCC(C(=O)O)c1ccccc1 (stereo unspecified)
inactive: [3] 98 % of control | [4] 101 % of control | endpoint: mean survival time, dose: 300.0 mg/kg/injection, schedule: Q01DX001 (ip), vehicle: saline 104 % of control

COC1=C(N)C(=O)c2nc(-c3nc(C(=O)O)c(C)c(-c4ccc(OC)c(OC)c4O)c3N)ccc2C1=O
inactive: endpoint: mean survival time, dose: 0.25 mg/kg/injection, schedule: Q01DX009 (ip), vehicle: saline with Tween-80 117 % of control | endpoint: mean survival time, dose: 0.5 mg/kg/injection, schedule: Q01DX009 (ip), vehicle: saline with Tween-80 100 % of control | endpoint: mean survival time, dose: 0.5 mg/kg/injection, schedule: Q04DX003 (ip), vehicle: saline with Tween-80 118 % of control | endpoint: mean survival time, dose: 1.0 mg/kg/injection, schedule: Q04DX003 (ip), vehicle: saline with Tween-80 105 % of control

CC(=O)Oc1cccc2c1C(=O)c1c(OC(C)=O)cc(C)cc1C2=O
inactive: endpoint: mean survival time, dose: 100.0 mg/kg/injection, schedule: Q01DX001 (ip), vehicle: saline 101 % of control | endpoint: mean survival time, dose: 200.0 mg/kg/injection, schedule: Q01DX001 (ip), vehicle: saline 101 % of control | endpoint: mean survival time, dose: 400.0 mg/kg/injection, schedule: Q01DX001 (ip), vehicle: saline 98 % of control

CCCCCCCCCCCCCCCCOc1ccc(NS(=O)(=O)c2ccc(NC(C)=O)cc2)cc1
inactive: endpoint: mean survival time, dose: 100.0 mg/kg/injection, schedule: Q01DX001 (ip), vehicle: saline with Tween-80 96 % of control | endpoint: mean survival time, dose: 100.0 mg/kg/injection, schedule: Q01DX009 (ip), vehicle: Klucel (hydroxypropylcellulose) (HPC) 109 % of control | endpoint: mean survival time, dose: 200.0 mg/kg/injection, schedule: Q01DX001 (ip), vehicle: saline with Tween-80 91 % of control | endpoint: mean survival time, dose: 200.0 mg/kg/injection, schedule: Q01DX009 (ip), vehicle: Klucel (hydroxypropylcellulose) (HPC) 103 % of control | endpoint: mean survival time, dose: 400.0 mg/kg/injection, schedule: Q01DX001 (ip), vehicle: saline with Tween-80 93 % of control | endpoint: mean survival time, dose: 400.0 mg/kg/injection, schedule: Q01DX009 (ip), vehicle: Klucel (hydroxypropylcellulose) (HPC) 98 % of control

C=C(C)C(=O)OCCO (tested in a mixture with another compound)
inactive: [5] 106 % of control | [6] 98 % of control | [7] 101 % of control | [8] 98 % of control | [9] 100 % of control | [10] 100 % of control

CCCCCCCCCCCCCCCCCC[N+]1(CC)CCCCC1
inactive: endpoint: mean survival time, dose: 0.09 mg/kg/injection, schedule: Q01DX009 (ip), vehicle: saline 98 % of control | endpoint: mean survival time, dose: 0.19 mg/kg/injection, schedule: Q01DX009 (ip), vehicle: saline 98 % of control | endpoint: mean survival time, dose: 0.39 mg/kg/injection, schedule: Q01DX009 (ip), vehicle: saline 101 % of control | endpoint: mean survival time, dose: 0.78 mg/kg/injection, schedule: Q01DX009 (ip), vehicle: saline 98 % of control

Cc1cc(=O)[nH]cn1
inactive: [1] 105 % of control | [2] 105 % of control | endpoint: mean survival time, dose: 400.0 mg/kg/injection, schedule: Q04DX002 (ip), vehicle: saline 97 % of control

CCCCCCCCCCCCOc1c(Cl)cc(Cl)cc1Cl
inactive: endpoint: mean survival time, dose: 100.0 mg/kg/injection, schedule: Q04DX002 (ip), vehicle: saline with Tween-80 101 % of control | endpoint: mean survival time, dose: 200.0 mg/kg/injection, schedule: Q04DX002 (ip), vehicle: saline with Tween-80 101 % of control | endpoint: mean survival time, dose: 400.0 mg/kg/injection, schedule: Q04DX002 (ip), vehicle: saline with Tween-80 104 % of control

C[n+]1ccc2ccccc2c1
inactive: [3] 103 % of control | [4] 103 % of control

O=C1c2ccccc2C(=O)N1OC1CCCCO1 (stereo unspecified)
inactive: endpoint: mean survival time, dose: 100.0 mg/kg/injection, schedule: Q04DX003 (ip), vehicle: Klucel (hydroxypropylcellulose) (HPC) 92 % of control | endpoint: mean survival time, dose: 200.0 mg/kg/injection, schedule: Q04DX003 (ip), vehicle: Klucel (hydroxypropylcellulose) (HPC) 102 % of control | endpoint: mean survival time, dose: 400.0 mg/kg/injection, schedule: Q04DX003 (ip), vehicle: Klucel (hydroxypropylcellulose) (HPC) 94 % of control

NC(=O)c1cn(C2OC(CO)C3OC32)c2ncnc(NC(=O)c3ccccc3)c12 (stereo unspecified)
inactive: [11] 90 % of control | [12] 93 % of control | [13] 93 % of control | [14] 97 % of control | [15] 100 % of control

CC1CC2(C)C(CC1=O)CC(C)C1C2CCC2(C)C1CCC2(C)O (stereo unspecified)
inactive: [6] 102 % of control | [8] 102 % of control | [10] 100 % of control

CCOC(=O)C1C(=O)N(C)C(=O)N1C (stereo unspecified)
inactive: endpoint: mean survival time, dose: 5.56 mg/kg/injection, schedule: Q01DX009 (ip), vehicle: water 89 % of control | endpoint: mean survival time, dose: 8.33 mg/kg/injection, schedule: Q01DX009 (ip), vehicle: water 90 % of control | endpoint: mean survival time, dose: 12.5 mg/kg/injection, schedule: Q01DX009 (ip), vehicle: water 121 % of control and 92 % of control | endpoint: mean survival time, dose: 25.0 mg/kg/injection, schedule: Q01DX009 (ip), vehicle: water 95 % of control | endpoint: mean survival time, dose: 50.0 mg/kg/injection, schedule: Q01DX009 (ip), vehicle: water 93 % of control | endpoint: mean survival time, dose: 100.0 mg/kg/injection, schedule: Q01DX009 (ip), vehicle: water 95 % of control | endpoint: mean survival time, dose: 200.0 mg/kg/injection, schedule: Q01DX009 (ip), vehicle: water 98 % of control

O=c1[nH]cnc2n[nH]c(Br)c12
inactive: endpoint: median survival time, dose: 50.0 mg/kg/injection, schedule: Q01DX005 (ip), vehicle: saline with Tween-80 107 % of control | endpoint: median survival time, dose: 100.0 mg/kg/injection, schedule: Q01DX005 (ip), vehicle: saline with Tween-80 111 % of control | endpoint: median survival time, dose: 200.0 mg/kg/injection, schedule: Q01DX005 (ip), vehicle: saline with Tween-80 119 % of control

CCCCC1(C(C)CC(C)(C)C)NC(C)(C)CC(C)O1 (stereo unspecified)
inactive: endpoint: mean survival time, dose: 25.0 mg/kg/injection, schedule: Q04DX002 (ip), vehicle: saline 104 % of control | endpoint: mean survival time, dose: 50.0 mg/kg/injection, schedule: Q04DX002 (ip), vehicle: saline 101 % of control | [1] 89 % of control | [6] 101 % of control

COc1ccc(-c2cc(C(=O)N/N=C/c3ccc([N+](=O)[O-])cc3)c3ccc(C)cc3n2)cc1OC
inactive: [5] 93 % of control | [7] 106 % of control | [9] 108 % of control

O=C(COc1ccc(Cl)c(Cl)c1)NCc1ccc(Cl)cc1
inactive: [6] 97 % of control | [8] 95 % of control | [10] 93 % of control

CCOC(=O)C(O)(C(=O)OCC)c1ccc(C)cc1
inactive: [5] 97 % of control | [6] 102 % of control | [7] 97 % of control | [8] 100 % of control | [9] 97 % of control | [10] 100 % of control

CNC(=O)Nc1ccc(C(=O)NC(C)C)cc1
inactive: endpoint: mean survival time, dose: 22.0 mg/kg/injection, schedule: Q01DX009 (ip), vehicle: other 93 % of control | endpoint: mean survival time, dose: 33.0 mg/kg/injection, schedule: Q01DX009 (ip), vehicle: other 102 % of control | endpoint: mean survival time, dose: 50.0 mg/kg/injection, schedule: Q01DX009 (ip), vehicle: other 94 % of control | endpoint: mean survival time, dose: 100.0 mg/kg/injection, schedule: Q01DX009 (ip), vehicle: other 95 % of control | endpoint: mean survival time, dose: 200.0 mg/kg/injection, schedule: Q01DX009 (ip), vehicle: other 91 % of control | endpoint: mean survival time, dose: 400.0 mg/kg/injection, schedule: Q01DX009 (ip), vehicle: other 96 % of control | endpoint: mean survival time, dose: 800.0 mg/kg/injection, schedule: Q01DX009 (ip), vehicle: other 100 % of control

N/N=C(\N)c1ccc2ccc3cccnc3c2n1
inactive: endpoint: mean survival time, dose: 100.0 mg/kg/injection, schedule: Q04DX003 (ip), vehicle: saline 89 % of control | endpoint: mean survival time, dose: 200.0 mg/kg/injection, schedule: Q04DX003 (ip), vehicle: saline 104 % of control | endpoint: mean survival time, dose: 400.0 mg/kg/injection, schedule: Q04DX003 (ip), vehicle: saline 108 % of control

COc1ccc(C(C#N)=C2C=CC(=NO)C=C2)cc1
inactive: [6] 98 % of control | [8] 95 % of control | [10] 101 % of control

NCc1cn(C2OC(CO)C(O)C2O)c2nc[nH]c(=O)c12 (stereo unspecified)
inactive: [11] 103 % of control | [12] 103 % of control | [13] 101 % of control | [14] 98 % of control | [15] 115 % of control

Cc1[nH]c2ccccc2c1C(C)(Cc1cc2ccccc2[nH]1)c1ccncc1 (stereo unspecified)
inactive: [5] 91 % of control | [7] 100 % of control | [9] 91 % of control
